Test results: patent US4443436A, “C-20-Modified macrolide derivatives of the macrolide antibiotics tylosin, desmycosin, macrocin, and lactenocin” (Eli Lilly and Company, priority 1982, dated 1984)
In brackets after ≈: the same amount, converted by molar mass. Like-named read-outs stand apart in the source and are kept apart here.

Legend:
[1] = tested on: Streptococcus Group D X66; assay: MIC, standard agar-dilution assay, Streptococcus Group D X66; assay type: cell-based
Mycoplasma hyorhinis = assay: MIC, broth-dilution microtiter test, Mycoplasma hyorhinis; assay type: cell-based
Text: (§1) The MIC's in Table X were obtained using conventional broth-dilution microtiter tests.

[2] = tested on: Staphylococcus aureus V41; assay: MIC, standard agar-dilution assay, Staphylococcus aureus V41; assay type: cell-based
[3] = tested on: Pasteurella multocida 17E; assay: MIC, broth-dilution microtiter test, Pasteurella multocida 17E; assay type: cell-based; details: Pasteurella multocida 17E, bovine isolate, broth-dilution microtiter
Text: as §1

[4] = tested on: Pasteurella multocida 60A; assay: MIC, broth-dilution microtiter test, Pasteurella multocida 60A; assay type: cell-based; details: Pasteurella multocida 60A, avian isolate, broth-dilution microtiter
Text: as §1

[5] = tested on: Pasteurella hemolytica 22C; assay: MIC, broth-dilution microtiter test, Pasteurella hemolytica 22C; assay type: cell-based; details: Pasteurella hemolytica 22C, broth-dilution microtiter
Text: as §1

[6] = tested on: Staphylococcus aureus X1.1; assay: MIC, standard agar-dilution assay, Staphylococcus aureus X1.1; assay type: cell-based
[7] = tested on: Staphylococcus epidermidis EPI1; assay: MIC, standard agar-dilution assay, Staphylococcus epidermidis EPI1; assay type: cell-based
[8] = tested on: Streptococcus pyogenes C203; assay: MIC, standard agar-dilution assay, Streptococcus pyogenes C203; assay type: cell-based
[9] = tested on: Haemophilus influenzae Holt; assay: MIC, standard agar-dilution assay, Haemophilus influenzae Holt; assay type: cell-based; details: Haemophilus influenzae Holt, ampicillin-sensitive strain
[10] = tested on: Staphylococcus aureus X400; assay: MIC, standard agar-dilution assay, Staphylococcus aureus X400; assay type: cell-based
Streptococcus Group 9960 = assay: MIC, standard agar-dilution assay, Streptococcus Group 9960; assay type: cell-based; details: Streptococcus Group 9960, agar dilution
Streptococcus bovis 80 = assay: MIC, broth-dilution microtiter test, Streptococcus bovis 80; assay type: cell-based; details: Streptococcus bovis 80, broth-dilution microtiter
Text: as §1

[11] = tested on: Streptococcus pyogenes C203; assay: In vivo protection of mice experimentally infected with S. pyogenes C203; details: Streptococcus pyogenes, mice, doses given 1 and 4 hours post-infection
Description: The C-20 modified derivatives of this invention have shown in vivo antimicrobial activity against experimentally-induced infections in laboratory animals. When two doses of test compound were administered to mice experimentally infected with S. pyogenes C203, the activity observed was measured as an ED50 value [effective dose in mg/kg to protect 50% of the test animals: see Warren Wick, et al., J. Bacteriol. 81, 233-235 (1961)].

Staphylococcus aureus = assay: MIC, broth-dilution microtiter test, Staphylococcus aureus; assay type: cell-based
Text: as §1

Mycoplasma gallisepticum = assay: MIC, broth-dilution microtiter test, Mycoplasma gallisepticum; assay type: cell-based
Text: as §1

[12] = tested on: Haemophilus influenzae R252; assay: MIC, standard agar-dilution assay, Haemophilus influenzae R252; assay type: cell-based; details: Haemophilus influenzae R252, ampicillin-resistant strain
[13] = tested on: Staphylococcus aureus S13E; assay: MIC, standard agar-dilution assay, Staphylococcus aureus S13E; assay type: cell-based
[14] = tested on: Streptococcus pneumoniae Park I; assay: microbe, parasite or virus in culture; assay type: cell-based
[15] = tested on: Staphylococcus epidermidis EPI2; assay: MIC, standard agar-dilution assay, Staphylococcus epidermidis EPI2; assay type: cell-based; details: Staphylococcus epidermidis EPI2, agar dilution
[16] = Streptococcus Group D X66, agar dilution, read-out: MIC
[17] = Staphylococcus epidermidis, EPI1
[18] = Streptococcus pyogenes C203, agar dilution, read-out: MIC
[19] = Streptococcus equinus, read-out: MIC
[20] = C203, sc, subcutaneous, read-out: ED50, Subcutaneous
[21] = C203, oral, read-out: ED50, Oral
[22] = Streptococcus pneumoniae Park I, agar dilution, read-out: MIC
[23] = Streptococcus Group D X66, agar dilution
[24] = Staphylococcus aureus V41, penicillin-resistant strain, agar dilution
[25] = Staphylococcus aureus X1.1, agar dilution
[26] = Staphylococcus epidermidis EPI1, agar dilution
[27] = Streptococcus pyogenes C203, agar dilution
[28] = Staphylococcus aureus X400, methicillin-resistant strain, agar dilution
[29] = Streptococcus pneumoniae Park I, agar dilution
[30] = Staphylococcus aureus S13E, agar dilution

| SMILES | MIC [1, 16] | MIC ([2]; Staphylococcus aureus, V41) | MIC ([6]; Staphylococcus aureus, X1.1) | MIC [7, 17] | MIC [8, 18] | MIC ([9]; read-out: MIC) | MIC (Streptococcus Group 9960; GROUP9960, read-out: MIC) | MIC ([12]; read-out: MIC) | MIC ([13]; Staphylococcus aureus, S13E) | MIC ([10]; Staphylococcus aureus, X400) | MIC [1, 23] | MIC [2, 24] | MIC [6, 25] | MIC [7, 26] | MIC ([9]; agar dilution) | MIC [10, 28] | MIC (Streptococcus Group 9960) | MIC [15] | MIC ([12]; agar dilution) | MIC [13, 30] | also measured |
| --- | --- | --- | --- | --- | --- | --- | --- | --- | --- | --- | --- | --- | --- | --- | --- | --- | --- | --- | --- | --- | --- |
| CCC1OC(=O)CC(O)C(C)C(OC2OC(C)C(OC3CC(C)(O)C(O)C(C)O3)C(N(C)C)C2O)C(CCOc2ccccc2)CC(C)C(=O)C=CC(C)=CC1COC1OC(C)C(O)C(OC)C1OC (centres unmarked) [Compound 4, 20-DH-20-O-Phenyltylosin] | 128 µg/mL (≈ 129 µM) | 1 µg/mL (≈ 1.01 µM) | 1 µg/mL (≈ 1.01 µM) | 1 µg/mL (≈ 1.01 µM) | 2 µg/mL (≈ 2.01 µM) | > 128 µg/mL | 128 µg/mL (≈ 129 µM) | > 128 µg/mL | 1 µg/mL (≈ 1.01 µM) |  |  |  |  |  |  |  |  |  |  |  | MIC (Mycoplasma hyorhinis; Mycoplasma): 50 µg/mL (≈ 50.3 µM); MIC ([3]; read-out: MIC): > 50 µg/mL; MIC ([4]; read-out: MIC): > 50 µg/mL; MIC ([5]; read-out: MIC): > 50 µg/mL; MIC ([10]; Staphylococcus aureus X400, methicillin-resistant strain, agar dilution, read-out: MIC): 2 µg/mL (≈ 2.01 µM); MIC (Streptococcus bovis 80; [19]): 12.5 µg/mL (≈ 12.6 µM); ED50 [11, 20]: > 6.3 mg/kg; ED50 [11, 21]: 35 mg/kg; MIC (Staphylococcus aureus; broth-dilution microtiter, read-out: MIC): 3.12 µg/mL (≈ 3.14 µM); MIC (Mycoplasma gallisepticum; Mycoplasmoides gallisepticum): 1.56 µg/mL (≈ 1.57 µM) |
| CCC1OC(=O)CC(O)C(C)C(OC2OC(C)C(OC3CC(C)(O)C(O)C(C)O3)C(N(C)C)C2O)C(CCCl)CC(C)C(=O)C=CC(C)=CC1COC1OC(C)C(O)C(OC)C1OC (centres unmarked) [Compound 7, 20-DH-DO-20-Chlorotylosin] |  | 1 µg/mL (≈ 1.07 µM) | 1 µg/mL (≈ 1.07 µM) | 1 µg/mL (≈ 1.07 µM) | 2 µg/mL (≈ 2.14 µM) | > 128 µg/mL | > 128 µg/mL | > 128 µg/mL | 1 µg/mL (≈ 1.07 µM) | 2 µg/mL (≈ 2.14 µM) |  |  |  |  |  |  |  |  |  |  | MIC [1]: > 128 µg/mL; MIC (Mycoplasma hyorhinis; Mycoplasma): 50 µg/mL (≈ 53.4 µM); MIC ([3]; read-out: MIC): > 50 µg/mL; MIC ([4]; read-out: MIC): > 50 µg/mL; MIC ([5]; read-out: MIC): > 50 µg/mL; MIC (Streptococcus bovis 80; [19]): 12.5 µg/mL (≈ 13.3 µM); ED50 [11, 20]: > 6.3 mg/kg; ED50 [11, 21]: 11 mg/kg; MIC (Staphylococcus aureus): 3.12 µg/mL (≈ 3.33 µM); MIC [14, 22]: 32 µg/mL (≈ 34.2 µM); MIC (Mycoplasma gallisepticum; Mycoplasmoides gallisepticum): 0.78 µg/mL (≈ 0.833 µM) |
| CCC1OC(=O)CC(O)C(C)C(OC2OC(C)C(OC3CC(C)(O)C(O)C(C)O3)C(N(C)C)C2O)C(CCOc2ccc(-c3ccccc3)cc2)CC(C)C(=O)C=CC(C)=CC1COC1OC(C)C(O)C(OC)C1OC (centres unmarked) [Compound 18, 20-DH-20-O-(p-Phenylphenyl)tylosin] | 8 µg/mL (≈ 7.47 µM) | 2 µg/mL (≈ 1.87 µM) | 2 µg/mL (≈ 1.87 µM) | 2 µg/mL (≈ 1.87 µM) | 2 µg/mL (≈ 1.87 µM) | > 128 µg/mL | > 128 µg/mL | > 128 µg/mL | 2 µg/mL (≈ 1.87 µM) | 2 µg/mL (≈ 1.87 µM) |  |  |  |  |  |  |  |  |  |  | MIC [14, 22]: 1 µg/mL (≈ 0.934 µM); MIC ([15]; read-out: MIC): 0.5 µg/mL (≈ 0.467 µM) |
| CCC1OC(=O)CC(O)C(C)C(OC2OC(C)C(OC3CC(C)(O)C(O)C(C)O3)C(N(C)C)C2O)C(CCOc2ncnc3ccccc23)CC(C)C(=O)C=CC(C)=CC1COC1OC(C)C(O)C(OC)C1OC (centres unmarked) [Compound 19a] |  |  |  |  |  |  |  |  |  |  | 32 µg/mL (≈ 30.6 µM) | 0.5 µg/mL (≈ 0.478 µM) | 0.5 µg/mL (≈ 0.478 µM) | 1 µg/mL (≈ 0.956 µM) | 128 µg/mL (≈ 122 µM) | 1 µg/mL (≈ 0.956 µM) | 64 µg/mL (≈ 61.2 µM) | 0.5 µg/mL (≈ 0.478 µM) | -- (Not active at 128 mcg/ml, the highest level tested) | 0.5 µg/mL (≈ 0.478 µM) | MIC [8, 27]: 4 µg/mL (≈ 3.82 µM); MIC [14, 29]: 4 µg/mL (≈ 3.82 µM) |
| CCC1OC(=O)CC(O)C(C)C(OC2OC(C)C(O)C(N(C)C)C2O)C(CCOCCc2ccccc2)CC(C)C(=O)C=CC(C)=CC1COC1OC(C)C(O)C(OC)C1OC (centres unmarked) [Compound 31, 20-DH-20-O-(Phenethyl)desmycosin] | 8 µg/mL (≈ 9.11 µM) | 0.25 µg/mL (≈ 0.285 µM) | 0.25 µg/mL (≈ 0.285 µM) | 0.25 µg/mL (≈ 0.285 µM) |  |  | 16 µg/mL (≈ 18.2 µM) |  | 0.25 µg/mL (≈ 0.285 µM) | 0.5 µg/mL (≈ 0.569 µM) |  |  |  |  |  |  |  |  |  |  | MIC ([8]; Streptococcus pyogenes, C203): 1 µg/mL (≈ 1.14 µM); MIC ([14]; Streptococcus pneumoniae): 0.25 µg/mL (≈ 0.285 µM); MIC ([15]; read-out: MIC): 0.12 µg/mL (≈ 0.137 µM) |
| CCC1OC(=O)CC(O)C(C)C(OC2OC(C)C(O)C(N(C)C)C2O)C(CCOc2ccc(CO)cc2)CC(C)C(=O)C=CC(C)=CC1COC1OC(C)C(O)C(OC)C1OC (centres unmarked) [Compound 51a] |  |  |  |  |  |  |  |  |  |  | 16 µg/mL (≈ 18.2 µM) | 0.5 µg/mL (≈ 0.568 µM) | 0.5 µg/mL (≈ 0.568 µM) | 0.5 µg/mL (≈ 0.568 µM) | 64 µg/mL (≈ 72.7 µM) | 1 µg/mL (≈ 1.14 µM) | 16 µg/mL (≈ 18.2 µM) | 0.25 µg/mL (≈ 0.284 µM) | 32 µg/mL (≈ 36.4 µM) | 0.5 µg/mL (≈ 0.568 µM) | MIC [8, 27]: 0.5 µg/mL (≈ 0.568 µM) |
| CC(=O)O.CC(=O)O.CCC1OC(=O)CC(O)C(C)C(OC2OC(C)C(O)C(N(C)C)C2O)C(CCN)CC(C)C(=O)C=CC(C)=CC1COC1OC(C)C(O)C(OC)C1OC (centres unmarked) [Compound 51b, 20-DH-DO-20-Aminodesmycosin diacetate] |  |  |  |  |  |  |  |  |  |  | 128 µg/mL | 4 µg/mL | 4 µg/mL | 8 µg/mL | 128 µg/mL | 8 µg/mL | 128 µg/mL | 2 µg/mL | -- (Not active at 128 mcg/ml, the highest level tested) | 4 µg/mL | MIC [14, 29]: 16 µg/mL |
| CCC1OC(=O)CC(O)C(C)C(OC2OC(C)C(OC3CC(C)(O)C(O)C(C)O3)C(N(C)C)C2OC(C)=O)C(CCOc2ccccc2)CC(C)C(=O)C=CC(C)=CC1COC1OC(C)C(O)C(OC)C1OC (centres unmarked) [Compound 64, 20-DH-20-O-Phenyl-2'-O-acetyltylosin] |  |  |  |  |  |  |  |  |  |  | -- (Not active at 128 mcg/ml, the highest level tested) | 2 µg/mL (≈ 1.93 µM) | 2 µg/mL (≈ 1.93 µM) | 2 µg/mL (≈ 1.93 µM) | -- (Not active at 128 mcg/ml, the highest level tested) | 4 µg/mL (≈ 3.86 µM) | -- (Not active at 128 mcg/ml, the highest level tested) | 2 µg/mL (≈ 1.93 µM) | -- (Not active at 128 mcg/ml, the highest level tested) | 2 µg/mL (≈ 1.93 µM) | MIC (Mycoplasma hyorhinis; Mycoplasma hyorhinis, broth-dilution microtiter): 50 µg/mL (≈ 48.3 µM); MIC [3]: -- (Not active at 50 mcg/ml, the highest level tested); MIC [4]: -- (Not active at 50 mcg/ml, the highest level tested); MIC [5]: -- (Not active at 50 mcg/ml, the highest level tested); MIC [8, 27]: 2 µg/mL (≈ 1.93 µM); MIC (Streptococcus bovis 80): 12.5 µg/mL (≈ 12.1 µM); MIC (Staphylococcus aureus; broth-dilution microtiter): 3.12 µg/mL (≈ 3.01 µM); MIC (Mycoplasma gallisepticum; Mycoplasma gallisepticum, broth-dilution microtiter): 1.56 µg/mL (≈ 1.51 µM) |
